In ChEMBL document CHEMBL3885861, “Open TG-GATES”:

Organism: Rattus norvegicus
Experiment: Open TG-GATES - Regimen: Daily Repeat
Assay type: toxicity, organism-based, Sprague-Dawley
Design: regimen Daily Repeat, gender Male, age 6 weeks
Conditions: in vivo, po, route gavage; for Bas / Eos / Fbg / Hb / Ht / Lym / MCHC / Mono / Neu / Plat / RBC / Ret / WBC / PT / MCV: tissue Blood; for KIDNEY_L / KIDNEY_R / KIDNEY_TOTAL: tissue Kidney; for LIVER: tissue Liver; for ALP / ALT / AST / CRE / DBIL / IP / K / LDH / Na / PL / RALB / TBIL / TC / TG / TP / gamma-GTP / BUN / Ca: tissue Plasma
[1] = 0 mg/kg, 72 h, dose level Control, time 3 day
[2] = 0 mg/kg, […], dose level Control, time 7 day
[3] = 0 mg/kg, […], dose level Control, time 14 day
[4] = 0 mg/kg, […], dose level Control, time 28 day
[5] = 40 mg/kg, 72 h, dose level Low, time 3 day
[6] = 40 mg/kg, […], dose level Low, time 7 day
[7] = 40 mg/kg, […], dose level Low, time 14 day
[8] = 40 mg/kg, […], dose level Low, time 28 day
[9] = 120 mg/kg, 72 h, dose level Middle, time 3 day

## CCC(C)(C)C(=O)O[C@H]1C[C@@H](C)C=C2C=C[C@H](C)[C@H](CC[C@@H]3C[C@@H](O)CC(=O)O3)[C@H]21 [SIMVASTATIN]
[1]
  TERMINAL_BW: 222.3 g
  Bas: 0%
  Eos: 1%
  Fbg: 227 mg/dL
  Hb: 13.3 g/dL
  Ht: 40%
  Lym: 78.8%
  MCHC: 33.1%
  Mono: 8.8%
  Neu: 11.8%
  Plat: 121.1 x10_4/uL
  RBC: 621.6 x10_4/ul
  Ret: 6.5%
  WBC: 98.2 x10_2/uL
  KIDNEY_L: 1 g
  KIDNEY_R: 1 g
  KIDNEY_TOTAL: 2 g
  LIVER: 11 g
  ALP: 820.2 IU/L
  ALT: 36.6 IU/L
  AST: 58.8 IU/L
  CRE: 0.6 mg/dL
  DBIL: 0.004 mg/dL
  IP: 7.8 mg/dL
  K: 4.6 meq/L
  LDH: 81 IU/L
  Na: 140.2 meq/L
  PL: 143.4 mg/dL
  RALB: 3.8 g/dL
  TBIL: 0.3 mg/dL
  TC: 82.2 mg/dL
  TG: 75.6 mg/dL
  TP: 5.6 g/dL
  gamma-GTP: 1.8 IU/L
[2]
  TERMINAL_BW: 253.4 g
  Bas: 0%
  Eos: 0.8%
  Fbg: 217.4 mg/dL
  Hb: 12.8 g/dL
  Ht: 38.8%
  Lym: 78.6%
  MCHC: 33%
  Mono: 8.8%
  Neu: 12%
  PT: 10.9 s
  Plat: 115.6 x10_4/uL
  RBC: 606.2 x10_4/ul
  Ret: 3.8%
  WBC: 108.7 x10_2/uL
  KIDNEY_L: 1.1 g
  KIDNEY_R: 1.1 g
  KIDNEY_TOTAL: 2.2 g
  LIVER: 12.2 g
  ALP: 953 IU/L
  ALT: 34.4 IU/L
  AST: 63.4 IU/L
  CRE: 0.7 mg/dL
  DBIL: 0.012 mg/dL
  IP: 7.1 mg/dL
  K: 4.7 meq/L
  LDH: 81.6 IU/L
  Na: 142.4 meq/L
  PL: 152.4 mg/dL
  RALB: 3.8 g/dL
  TBIL: 0.3 mg/dL
  TC: 78.6 mg/dL
  TP: 5.7 g/dL
  gamma-GTP: 1.2 IU/L
[3]
  TERMINAL_BW: 301 g
  Bas: 0%
  Eos: 1%
  Fbg: 222.4 mg/dL
  Hb: 13.9 g/dL
  Ht: 41.7%
  Lym: 78.4%
  MCHC: 33.2%
  Mono: 7%
  Neu: 13.8%
  Plat: 123.4 x10_4/uL
  RBC: 674.8 x10_4/ul
  Ret: 6.2%
  WBC: 122.2 x10_2/uL
  KIDNEY_L: 1.2 g
  KIDNEY_R: 1.3 g
  KIDNEY_TOTAL: 2.5 g
  LIVER: 14 g
  ALP: 777.2 IU/L
  ALT: 34.6 IU/L
  AST: 64.2 IU/L
  BUN: 20.6 mg/dL
  CRE: 0.6 mg/dL
  DBIL: 0.016 mg/dL
  IP: 7 mg/dL
  K: 4.5 meq/L
  LDH: 74.6 IU/L
  Na: 140.6 meq/L
  PL: 154.4 mg/dL
  RALB: 3.8 g/dL
  TBIL: 0.3 mg/dL
  TC: 73.6 mg/dL
  TG: 115.8 mg/dL
  TP: 5.9 g/dL
  gamma-GTP: 1.4 IU/L
[4]
  TERMINAL_BW: 380.8 g
  Bas: 0%
  Eos: 1%
  Fbg: 227.8 mg/dL
  Hb: 14.5 g/dL
  Ht: 43.6%
  Lym: 85.6%
  MCHC: 33.3%
  MCV: 57.8 fL
  Mono: 4.8%
  Neu: 8.6%
  PT: 11.7 s
  Plat: 120.4 x10_4/uL
  RBC: 753.6 x10_4/ul
  Ret: 3%
  WBC: 132.7 x10_2/uL
  KIDNEY_L: 1.4 g
  KIDNEY_R: 1.4 g
  KIDNEY_TOTAL: 2.8 g
  LIVER: 15.9 g
  ALP: 672 IU/L
  ALT: 31.8 IU/L
  AST: 57.6 IU/L
  BUN: 20 mg/dL
  CRE: 0.7 mg/dL
  DBIL: 0.016 mg/dL
  IP: 5.9 mg/dL
  K: 4.3 meq/L
  LDH: 76.6 IU/L
  Na: 142.6 meq/L
  PL: 147.8 mg/dL
  RALB: 3.9 g/dL
  TBIL: 0.3 mg/dL
  TC: 66 mg/dL
  TG: 151.4 mg/dL
  TP: 6.1 g/dL
  gamma-GTP: 1.6 IU/L
[5]
  TERMINAL_BW: 221.3 g
  Bas: 0%
  Eos: 1%
  Fbg: 222.8 mg/dL
  Hb: 13.6 g/dL
  Ht: 41.1%
  Lym: 77%
  MCHC: 33.2%
  Mono: 8.6%
  Neu: 13.6%
  Plat: 125.7 x10_4/uL
  RBC: 639.6 x10_4/ul
  Ret: 5.1%
  WBC: 97.1 x10_2/uL
  KIDNEY_L: 0.9 g
  KIDNEY_R: 1 g
  KIDNEY_TOTAL: 1.9 g
  ALP: 959.2 IU/L
  ALT: 40.6 IU/L
  AST: 67 IU/L
  BUN: 18 mg/dL
  CRE: 0.5 mg/dL
  DBIL: 0.004 mg/dL
  IP: 7.1 mg/dL
  K: 4.4 meq/L
  LDH: 102.4 IU/L
  Na: 140 meq/L
  PL: 148.4 mg/dL
  RALB: 3.8 g/dL
  TBIL: 0.3 mg/dL
  TC: 88.2 mg/dL
  TG: 69.6 mg/dL
  TP: 5.6 g/dL
  gamma-GTP: 1.8 IU/L
[6]
  TERMINAL_BW: 254.5 g
  Bas: 0%
  Eos: 0.6%
  Fbg: 232.4 mg/dL
  Hb: 13.3 g/dL
  Ht: 39.9%
  Lym: 83%
  MCHC: 33.2%
  Mono: 6%
  PT: 11 s
  Plat: 120.4 x10_4/uL
  RBC: 619.6 x10_4/ul
  Ret: 4.2%
  WBC: 123 x10_2/uL
  KIDNEY_L: 1.1 g
  KIDNEY_R: 1.1 g
  KIDNEY_TOTAL: 2.2 g
  LIVER: 12.5 g
  ALP: 877.6 IU/L
  ALT: 38.4 IU/L
  AST: 60.8 IU/L
  BUN: 20.6 mg/dL
  CRE: 0.6 mg/dL
  Ca: 11 mg/dL
  DBIL: 0 mg/dL
  IP: 6.9 mg/dL
  K: 4.9 meq/L
  LDH: 112.2 IU/L
  Na: 141.4 meq/L
  PL: 155 mg/dL
  RALB: 3.8 g/dL
  TBIL: 0.3 mg/dL
  TG: 99.2 mg/dL
  TP: 5.9 g/dL
  gamma-GTP: 1.8 IU/L
[7]
  TERMINAL_BW: 301.6 g
  Bas: 0%
  Eos: 0.6%
  Fbg: 219.4 mg/dL
  Hb: 13.9 g/dL
  Ht: 41.7%
  Lym: 81.6%
  MCHC: 33.3%
  Mono: 5.6%
  Neu: 12.4%
  Plat: 119.7 x10_4/uL
  RBC: 675.8 x10_4/ul
  Ret: 5.3%
  WBC: 121.7 x10_2/uL
  KIDNEY_L: 1.2 g
  KIDNEY_R: 1.2 g
  KIDNEY_TOTAL: 2.4 g
  LIVER: 13.6 g
  ALP: 819.8 IU/L
  ALT: 37 IU/L
  AST: 61.4 IU/L
  BUN: 20 mg/dL
  CRE: 0.6 mg/dL
  Ca: 10.8 mg/dL
  DBIL: 0.006 mg/dL
  IP: 7.1 mg/dL
  K: 4.7 meq/L
  LDH: 82 IU/L
  Na: 140.8 meq/L
  PL: 145.6 mg/dL
  RALB: 3.9 g/dL
  TBIL: 0.3 mg/dL
  TC: 76.6 mg/dL
  TG: 118.4 mg/dL
  TP: 5.9 g/dL
  gamma-GTP: 1.8 IU/L
[8]
  TERMINAL_BW: 380.4 g
  Bas: 0%
  Eos: 1.2%
  Fbg: 244.4 mg/dL
  Hb: 14.8 g/dL
  Ht: 44.7%
  Lym: 81%
  MCHC: 33%
  MCV: 58.3 fL
  Mono: 6.4%
  Neu: 11.6%
  Plat: 111 x10_4/uL
  RBC: 766.6 x10_4/ul
  Ret: 2.3%
  WBC: 112.3 x10_2/uL
  KIDNEY_L: 1.4 g
  KIDNEY_R: 1.4 g
  KIDNEY_TOTAL: 2.8 g
  LIVER: 16.5 g
  ALP: 751.6 IU/L
  ALT: 34.2 IU/L
  AST: 60.4 IU/L
  BUN: 20.6 mg/dL
  CRE: 0.7 mg/dL
  DBIL: 0.024 mg/dL
  IP: 6.8 mg/dL
  K: 4.3 meq/L
  LDH: 113.6 IU/L
  Na: 143.2 meq/L
  PL: 163 mg/dL
  RALB: 4 g/dL
  TBIL: 0.3 mg/dL
  TC: 78.2 mg/dL
  TG: 165.2 mg/dL
  TP: 6.2 g/dL
  gamma-GTP: 1.4 IU/L
[9]
  TERMINAL_BW: 215.2 g
  Bas: 0%
  Eos: 1%
  Fbg: 217.2 mg/dL
  Hb: 13.6 g/dL
